Results taken from patent US20250161297A1, “COMPOSITIONS AND METHODS FOR INHIBITING FSP1” (THE REGENTS OF THE UNIVERSITY OF CALIFORNIA, priority 2022, published 2025).

Molecular target: T1, recombinant purified FSP1 (Homo sapiens, UniProt Q9BRQ8)
T1 construct: made in house; host or cells: E. coli LOBSTR-BL21 (DE3)
T1 sequence (Q9BRQ8 1-373): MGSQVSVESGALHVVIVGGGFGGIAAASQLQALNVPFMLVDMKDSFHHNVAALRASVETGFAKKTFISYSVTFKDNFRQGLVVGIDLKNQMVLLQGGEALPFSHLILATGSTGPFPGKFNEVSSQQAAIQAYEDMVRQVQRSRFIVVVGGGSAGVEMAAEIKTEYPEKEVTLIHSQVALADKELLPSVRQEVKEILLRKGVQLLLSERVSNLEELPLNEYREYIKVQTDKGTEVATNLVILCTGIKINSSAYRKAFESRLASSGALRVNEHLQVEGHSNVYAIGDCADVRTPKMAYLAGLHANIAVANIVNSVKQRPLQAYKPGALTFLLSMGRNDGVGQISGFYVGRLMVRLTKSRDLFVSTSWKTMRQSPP
Assay: FSP1 enzyme kinetics with NADH, CoQ-coumarin and CoQ1
Format: biochemical
Procedure: FSP1 Kinetics (NADH): To measure FSP1 kinetics, FSEN1 was dissolved and diluted in DMSO, and recombinant purified FSP1 was diluted in PBS. 0.5 μL FSEN1 and 12.5 μL FSP1 were mixed and incubated for 30 minutes in a NBS polystyrene 384-well plate (Corning Ref: 3640) at RT. Vehicle control wells included 0.5 μL DMSO and were absent of any FSEN1. NADH (Millipore Cat: 481913) was then dissolved and diluted in PBS and added to the plate wells. CoQ-Coumarin (Cayman Item: 29554) was dissolved in DMSO, diluted in PBS, and added to the plate wells to start the reaction. Final well volume was 25 μL, and final concentrations were 25 nM FSP1, 10UM CoQ-Coumarin, 1-50 μM NADH, and 50-500 nM FSEN1. […] Reduced CoQ-Coumarin fluorescence (Ex: 405 nm, Em: 475 nm) was measured as read-out of enzymatic product formation on a kinetic cycle with an interval time of 20 seconds at RT. […] Raw data from 3 biological replicates were then plotted and initial slopes were calculated using a linear regression in prism (GraphPad).
FSP1 Kinetics (CoQ-Coumarin): To measure FSP1 kinetics, FSEN1 was dissolved and diluted in DMSO, and recombinant purified FSP1 was diluted in PBS. […] Reduced CoQ-Coumarin fluorescence (Ex: 405 nm, Em: 475 nm) was measured as read-out of enzymatic product formation on a kinetic cycle with an interval time of 15 seconds at RT. […]

**Q.** For `COc1ccc(N2CCN(Cc3cn4c(-c5ccc(Br)cc5)nnc4s3)CC2)cc1` [FSEN1], which “change in Kcat” value (as FSEN1 concentrations increased) is on record?
**A.** decrease in Kcat values

**Q.** What about the “mechanism of FSP1 inhibition” value (increasing NADH and CoQ-coumarin, Lineweaver-Burke plots parallel) of the same compound?
**A.** uncompetitive inhibitor
